{"source": "patent US10450549B2", "about": "“Aryloxyphenoxypropionate tolerance in turfrgass species and use of AAD1 as a selectable marker” (Dow AgroSciences, LLC, priority 2004, dated 2019)", "key": {"[1]": {"tested_on": "AAD1-transformed T0 ‘Crenshaw’ creeping bentgrass events (pDAB3878, pDAB5042)", "test": "Quizalofop-p-ethyl postemergence on AAD1-transformed T0 Crenshaw creeping bentgrass, visual % injury", "type": "in vivo, Agrostis stolonifera L. var. palustris", "method": "After molecular confirmation was utilized to identify transgenic events, a number of transgenic events were tested for herbicide tolerance. Specific isolated transgenic events were selected and maintained vegetatively through division of the crowns and replanting the clonal pieces into fresh growth medium. Clonally propagated plants were maintained by periodic “mowing” of vegetative tissues.\nGrowth medium was prepared by mixing Promix® and sand in a 2 to 1 ratio. The medium was contained in plastic pots with a surface area of 84.6 square centimeters (cm^2). When required to maintain plant health, a fungicide, insecticide, and/or other chemical or physical treatment was applied to stock plants. The plants were maintained in a greenhouse with an approximate 14 hour photoperiod which was maintained at 24-27° C. during the day and 22-25° C. during the night. Nutrients (Peters Excel® 15-5-15 5-Ca 2-Mg and iron chelate) were applied in the irrigation solution as needed, and water was added on a regular basis. Supplemental lighting was provided with overhead metal halide 1000-Watt lamps when photosynthetically active radiation (PAR) dropped below 500.\n(§1) Selected T0 plants were sprayed with quizalofop-p-ethyl (Assure II®, DUPONT, Wilmington, Del.) at rates ranging from 60 to 2,240 g ae/ha. […] This rate also controls susceptible monocot weed species. Measured amounts were placed individually in 25 mL glass vials and dissolved in a 4 mL volume of 1.0% (v/v) Agri-Dex® Crop Oil Concentrate (COC) from HELENA CHEMICAL (Collierville, Tenn.). Application solutions were prepared by serial dilution of the highest rate applied. One-half the volume of the highest rate stock solution (2 mL) was transferred to a clean 25 mL vial containing an equal volume of 1% COC and the diluted solution was mixed. Additional dilutions were prepared similarly by removing one-half the volume of the previous concentration (2 mL), and adding to an equal volume of 1% COC and mixing. When preparing the lowest concentration, the remaining one-half volume was discarded. All 2 mL stock solutions were further diluted by adding 10 mL aqueous mixture of 1.0% (v/v) COC, so that the final spray solutions were 12 mL in volume and contained 1.0% (v/v) COC.\n(§2) Spray solutions were applied to the plant material with an overhead Mandel™ track sprayer equipped with a 8002E nozzles calibrated to deliver 187 L/ha over an application area of 0.503 square meters (m^2) at a spray height of 18 inches (46 cm) above average plant canopy height. Control plants were sprayed in the same manner with the COC blank.\n(§3) The treated plants and control plants were placed in a greenhouse, and watered by sub-irrigation to prevent wash-off of the test compounds. At various times after application, the condition of the test plants as compared with that of the untreated plants was determined visually and scored on a scale of 0 to 100 percent (where 0 corresponds to no injury or growth inhibition and 100 corresponds to complete kill). Regenerated, non-transformed (NT) ‘Crenshaw’ or elite line 2905-2 creeping bentgrass plants and/or seed-derived clonally propagated plants served as quizalofop sensitive controls."}, "[2]": {"tested_on": "non-transformed (NT) and seed-derived (WT) creeping bentgrass", "test": "Quizalofop-p-ethyl postemergence on non-transformed / seed-derived creeping bentgrass controls", "type": "in vivo, Agrostis stolonifera L. var. palustris", "method": "as §1, §2, §3"}, "[3]": {"tested_on": "Kentucky bluegrass cv Shamrock callus", "test": "Callus selection conditions with quizalofop and haloxyfop: Kentucky bluegrass", "type": "cell-based", "method": "Selection conditions for creeping bentgrass cv Crenshaw and Kentucky bluegrass cv Shamrock were established using the grass-active herbicides, quizalofop and haloxyfop. Concentrations of quizalofop and haloxyfop ranged from 0 to 300 nM dissolved in defined callus maintenance media for each species. Callus tissue, derived from mature seeds of each species or cultivar, was used in the experiment. In the case of creeping bentgrass cv Crenshaw, calli maintained on CBG-3 medium were transferred to plates of CBG-3 medium containing either haloxyfop or quizalofop at 0, 50, 100, 150, 200, 250, and 300 nM final concentrations. Visual observations (growth of callus and development of necrosis) were made over a period of 1.5 months. For Kentucky bluegrass cv Shamrock and experimental line A98, calli maintained on KBG-2 were transferred to plates of KBG-2 medium containing 0, 50, 100, 150, 200, 250, and 300 nM final concentrations of the herbicides. Visual observations of callus growth and necrosis were made over a 2.5 month period. […] The calli became necrotic at lower concentrations of quizalofop relative to haloxyfop and the response was more rapid. […]"}}}
{"smiles": "C[C@@H](Oc1ccc(Oc2cnc3cc(Cl)ccc3n2)cc1)C(=O)O", "note": "[quizalofop]", "values": [{"measurement": "mean injury, pDAB5042 Crenshaw events", "setting": "[1]; 60, 120, 240 and 480 g ae/ha, 21 to 24 DAA", "result": "less than 10%"}, {"measurement": "mean injury, pDAB3878 Crenshaw events", "setting": "[1]; 120 g ae/ha, 11 DAA", "result": "about 20%"}, {"measurement": "mean injury, pDAB3878 Crenshaw events", "setting": "[1]; 120 g ae/ha, 14 DAA", "result": "about 25%"}, {"measurement": "mean injury, pDAB3878 Crenshaw events", "setting": "[1]; 120 g ae/ha, 20 DAA", "result": "about 20%"}, {"measurement": "mean injury, pDAB3878 Crenshaw events", "setting": "[1]; 480 g ae/ha, 11 DAA", "result": "~30", "unit": "%"}, {"measurement": "mean injury, pDAB3878 Crenshaw events", "setting": "[1]; 480 g ae/ha, 14 DAA", "result": "~30", "unit": "%"}, {"measurement": "mean injury, pDAB3878 Crenshaw events", "setting": "[1]; 480 g ae/ha, 20 DAA", "result": "about 20%"}, {"measurement": "injury of individual pDAB5042 Crenshaw events", "setting": "[1]; 480 g ae/ha, 21-24 DAA, all events except 204 and 227", "result": "≤ 20", "unit": "%"}, {"measurement": "injury of control, non-transgenic plants", "setting": "[2]; 60 g ae/ha, 21 to 24 DAA", "result": "about 70%"}, {"measurement": "injury of control, non-transgenic plants", "setting": "[2]; 120 and 480 g ae/ha, 11, 14, 20 DAA", "result": "about 80% injury to greater than 90% injury"}, {"measurement": "injury of control, non-transgenic plants", "setting": "[2]; 120 g ae/ha, 21 to 24 DAA", "result": "~80", "unit": "%"}, {"measurement": "injury of control, non-transgenic plants", "setting": "[2]; 240 g ae/ha, 21 to 24 DAA", "result": "~90", "unit": "%"}, {"measurement": "injury of control, non-transgenic plants", "setting": "[2]; 480 g ae/ha, 21 to 24 DAA", "result": "~100", "unit": "%"}, {"measurement": "concentration needed to kill all calli", "setting": "[3]", "result": 200, "unit": "nM"}]}
